Laboratory results taken from patent publication US20250325505A1, “COMPOSITION COMPRISING CREATINE FOR USE IN THE TREATMENT OF BREATHING DIFFICULTIES” (Alzchem Trostberg GmbH, priority 2022, published 2025).
Read-outs that look alike come from different tables or passages of the source.

Experiments:
PCFS patients [1] = test: Fatigue scores, Example 4; assay type: in vivo, human; design: key to General fatigue score / Physical fatigue score / Mental fatigue score / Reduced activity score / Reduced motivation score: MFI-20 multidimensional fatigue inventory subscale scores; settings: for General fatigue score / Mental fatigue score / Physical fatigue score / Reduced activity score / Reduced motivation score: creatine 8 g per day or glucose 3 g per day
Experimental: The patient-reported outcomes for COVID-19-related signs and symptoms (e.g., breathing difficulties, lung pain, body aches,) were evaluated with VAS scale Table 3). Fatigue, comprising the conditions of the group general fatigue, physical fatigue, metal fatigue, reduced activity, and reduced motivation, was evaluated with a multidimensional fatigue inventory test (MFI-20 test, Smets E. M. et al., J. Psychosom. Res. 1995, 39(3), 315). […]

Post-COVID patients [2] = test: Side effects, Example 1; assay type: in vivo, human; settings: 4 g creatine monohydrate per day
Experimental: The number of participants who were randomly assigned, received intended treatment, and were analyzed for the primary outcome at this time was twelve in total, six in experimental group and six in control group.

[3] = both, human, in vivo, 3 months
Post-COVID patients [4] = test: Multidimensional fatigue inventory test (MFI-20), Example 2; assay type: in vivo, human; settings: 4 g creatine monohydrate per day plus breathing exercise
Experimental: (§1) The patient-reported outcomes for COVID-19-related signs and symptoms (e.g., breathing difficulties, lung pain, body aches,) were evaluated with VAS scale Table 3). Fatigue, comprising the conditions of the group general fatigue, physical fatigue, metal fatigue, reduced activity, and reduced motivation, was evaluated with a multidimensional fatigue inventory test (MFI-20 test, Smets E. M. et al., J. Psychosom. Res. 1995, 39(3), 315).

Post-COVID patients [5] = test: Patient-reported symptoms, VAS scale, Example 2; assay type: in vivo, human; settings: for Breathing difficulties (VAS scale) / Lung malaise (VAS scale) / Lung pain (VAS scale): 4 g creatine monohydrate per day plus breathing exercise
Experimental: as §1

[6] = human, in vivo
Post-COVID patients [7] = test: Patient-reported COVID-19-related symptoms, VAS scale, Example 1; assay type: in vivo, human; settings: for Body Aches (VAS scale) / Breathing difficulties (VAS scale) / Lung pain (VAS scale): 4 g creatine monohydrate per day
Experimental: as §1

[8] = normal healthy population after creatine supplementation; cited from earlier work
Post-COVID patients [9] = test: Side effects, Example 2; assay type: in vivo, human; settings: 4 g creatine monohydrate per day plus breathing exercise, 3-month
Source text: The changes in study outcomes during the trial are depicted in Table 5 and 6.

Post-COVID patients [10] = test: Time to exhaustion, incremental treadmill test, creatine vs placebo; assay type: in vivo, human; settings: creatine vs placebo study; for Time to exhaustion: treadmill
Experimental: (§2) The time to exhaustion of the patients was evaluated by an incremental test until exhaustion on a motorized treadmill. Speed and gradient of the treadmill are increased every third minute, starting at 2.7 km/h (1.7 miles per hour) at a 10% gradient and rising at stage 7 to 9.7 km/h (6 miles per hour) at 22% gradient (Will P. M. and Walter J. D., Am Heart. J., 1999 December, 138, 1033).

Post-COVID patients [11] = test: Multidimensional fatigue inventory test (MFI-20), Example 1; assay type: in vivo, human; settings: 4 g creatine monohydrate per day
Experimental: as §1
Thus, the higher the score, the higher the respective symptom is experienced by the interviewed patient. As a consequence, the lower the value given, the better is the effect in mitigation of the respective symptom.

PCFS patients [12] = test: Patient-reported symptoms, VAS scale, Example 4; assay type: in vivo, human; settings: for Body Aches (VAS scale) / Breathing difficulties (VAS scale) / Lung pain (VAS scale): creatine 8 g per day or glucose 3 g per day
Experimental: The patient-reported outcomes for COVID-19-related signs and symptoms (e.g., breathing difficulties, lung pain, body aches and post viral fatigue) were evaluated with VAS scale (Tables 10 and 11).
The Cohen's effect sizes (d) in the creatine group for all outcomes evaluated and reproduced in Table 12 and FIG. 2. The effects are classified as small (d=0.2), medium (d=0.5, dashed line), and large (d≥0.8). Missing values are due to a statistical limitation in calculating effect sizes when pre and/or post values equal zero. Abbreviations: GF, general fatigue; PF, physical fatigue; RM, reduced motivation; RA, reduced activity; MF, mental fatigue; BOA, body aches; BRD, breathing difficulties; LUP, lung pain; and MAL, malaise.

Post-COVID patients [13] = test: Time to exhaustion, incremental treadmill test, creatine plus breathing exercise; assay type: in vivo, human; settings: for Time to exhaustion: treadmill
Experimental: as §2

[14] = creatine group, 8 g per day, 8 weeks

CN(CC(=O)O)C(=N)N.O [Creatine, creatine monohydrate]
General fatigue score (PCFS patients [1]; 8 weeks): 12.0
Mental fatigue score (PCFS patients [1]; 8 weeks): 12.2
Physical fatigue score (PCFS patients [1]; 8 weeks): 11.4
Reduced activity score (PCFS patients [1]; 8 weeks): 12.0
Reduced motivation score (PCFS patients [1]; 8 weeks): 10.3
General fatigue score (PCFS patients [1]; Baseline): 12.6
Mental fatigue score (PCFS patients [1]; Baseline): 13.4
Physical fatigue score (PCFS patients [1]; Baseline): 12.2
Reduced activity score (PCFS patients [1]; Baseline): 13.6
Reduced motivation score (PCFS patients [1]; Baseline): 11.6
Cohen's effect (d), General Fatigue (PCFS patients [1]; [14]): 0.44
Cohen's effect (d), Physical Fatigue (PF) (PCFS patients [1]; [14]): 0.83
side effects (Post-COVID patients [2]): no major side effects
Cohen's effect size (d) for creatine increment, vastus medialis muscle [3]: 0.77
General fatigue score (Post-COVID patients [4]; 3 months): 12.3
Mental fatigue score (Post-COVID patients [4]; 3 months): 11.5
Physical fatigue score (Post-COVID patients [4]; 3 months): 12.2
Reduced activity score (Post-COVID patients [4]; 3 months): 12.8
Reduced motivation score (Post-COVID patients [4]; 3 months): 12.8
General fatigue score (Post-COVID patients [4]; Baseline): 11.5
Mental fatigue score (Post-COVID patients [4]; Baseline): 11.8
Physical fatigue score (Post-COVID patients [4]; Baseline): 12.3
Reduced activity score (Post-COVID patients [4]; Baseline): 12.5
Reduced motivation score (Post-COVID patients [4]; Baseline): 13.5
Cohen's effect size for lung malaise (Post-COVID patients [5]; 3-month follow up): 2.97
Breathing difficulties (VAS scale) (Post-COVID patients [5]; 3 months): 0.0
Lung malaise (VAS scale) (Post-COVID patients [5]; 3 months): 1.0
Lung pain (VAS scale) (Post-COVID patients [5]; 3 months): 0.0
Breathing difficulties (VAS scale) (Post-COVID patients [5]; Baseline): 1.5
Lung malaise (VAS scale) (Post-COVID patients [5]; Baseline): 6.3
Lung pain (VAS scale) (Post-COVID patients [5]; Baseline): 0.5
lung malaise reduced (Post-COVID patients [5]; creatine plus breathing exercise, 3-month follow up): 84%
Total creatine, Left paracentral grey matter [6]: 6.7 ± 0.6 mM
Total creatine, Right paracentral grey matter [6]: 6.8 ± 0.4 mM
Cohen's effect size (d), increased brain creatine level in left parietal white matter ([6]; 3 months): 0.92
Cohen's effect size (d), increased brain creatine level in parietal white matter ([6]; 3 months): 1.99
Cohen's effect size (d), increased brain creatine level in right frontal white matter ([6]; 3 months): 1.25
Cohen's effect size (d), increased brain creatine level in right paracentral grey matter ([6]; 3 months): 0.88
Cohen's effect size (d), increased brain creatine level in right parietal messial grey matter ([6]; 3 months): 1.17
Cohen's effect size (d), increased brain creatine level in thalamus ([6]; 3 months): 0.82
Total creatine, Left paracentral grey matter ([6]; 3 months): 7.3 ± 0.9 mM
Total creatine, Right paracentral grey matter ([6]; 3 months): 7.2 ± 0.5 mM
Cohen's effect size (d), increased brain creatine level in left parietal messial grey matter ([6]; 6 months): 0.84
Cohen's effect size (d), increased brain creatine level in left parietal white matter ([6]; 6 months): 1.17
Cohen's effect size (d), increased brain creatine level in parietal white matter ([6]; 6 months): 1.74
Cohen's effect size (d), increased brain creatine level in right frontal white matter ([6]; 6 months): 1.32
Cohen's effect size (d), increased brain creatine level in right parietal messial grey matter ([6]; 6 months): 1.06
Total creatine, Left paracentral grey matter ([6]; 6 months): 7.1 ± 0.7 mM
Total creatine, Right paracentral grey matter ([6]; 6 months): 7.0 ± 0.7 mM
Body Aches (VAS scale) (Post-COVID patients [7]; 3 months): 1.2
Breathing difficulties (VAS scale) (Post-COVID patients [7]; 3 months): 0.5
Lung pain (VAS scale) (Post-COVID patients [7]; 3 months): 0.5
Body Aches (VAS scale) (Post-COVID patients [7]; 6-months): 0.0
Breathing difficulties (VAS scale) (Post-COVID patients [7]; 6-months): 0.0
Lung pain (VAS scale) (Post-COVID patients [7]; 6-months): 0.0
Body Aches (VAS scale) (Post-COVID patients [7]; Baseline): 4.5
Breathing difficulties (VAS scale) (Post-COVID patients [7]; Baseline): 2.3
Lung pain (VAS scale) (Post-COVID patients [7]; Baseline): 2.3
Body aches reduced (Post-COVID patients [7]; after 3 months): 73.3%
Lung pain (Post-COVID patients [7]; after 3 months): reduced significantly
breathing difficulties (dyspnea) reduced (Post-COVID patients [7]; after 3 months): 78%
Cohen's effect size (d), body aches (Post-COVID patients [7]; at 3-month): 1.77
Cohen's effect size (d), breathing difficulties (Post-COVID patients [7]; at 3-month): 0.89
Cohen's effect size (d), body aches (Post-COVID patients [7]; at 6-month): 3.03
Cohen's effect size (d), breathing difficulties (Post-COVID patients [7]; at 6-month): 1.25
Cohen's effect size (d), lung pain (Post-COVID patients [7]; at 6-month): 0.99
increase of creatine in the brain [8]: ≤ 5%
side effects / tolerability (Post-COVID patients [9]): well-tolerated
stage achieved in the treadmill test (Post-COVID patients [10]): 6
time to exhaustion increased (Post-COVID patients [10]; matches 6-months vs baseline of Table 7): 7.3%
Time to exhaustion (Post-COVID patients [10]; 3-months): 922 s
Time to exhaustion (Post-COVID patients [10]; 6-months): 959 s
Time to exhaustion (Post-COVID patients [10]; Baseline): 894 s
General fatigue score (Post-COVID patients [11]; 3 months): 11.3
Mental fatigue score (Post-COVID patients [11]; 3 months): 11.2
Physical fatigue score (Post-COVID patients [11]; 3 months): 12.7
Reduced activity score (Post-COVID patients [11]; 3 months): 12.0
Reduced motivation score (Post-COVID patients [11]; 3 months): 13.0
General fatigue score (Post-COVID patients [11]; 6 months): 12.7
Mental fatigue score (Post-COVID patients [11]; 6 months): 10.5
Physical fatigue score (Post-COVID patients [11]; 6 months): 13.2
Reduced activity score (Post-COVID patients [11]; 6 months): 12.5
Reduced motivation score (Post-COVID patients [11]; 6 months): 12.5
General fatigue score (Post-COVID patients [11]; Baseline): 12.0
Mental fatigue score (Post-COVID patients [11]; Baseline): 12.3
Physical fatigue score (Post-COVID patients [11]; Baseline): 13.5
Reduced activity score (Post-COVID patients [11]; Baseline): 11.5
Reduced motivation score (Post-COVID patients [11]; Baseline): 13.0
Cohen's effect size (d) for reducing body aches (PCFS patients [12]; 8-week follow-up): > 0.80
Cohen's effect size (d) for reducing breathing difficulties (PCFS patients [12]; 8-week follow-up): > 0.80
Cohen's effect size (d) for reducing lung malaise (PCFS patients [12]; 8-week follow-up): > 0.80
Body aches reduced (PCFS patients [12]; after 8 weeks): 71%
Lung pain reduced (PCFS patients [12]; after 8 weeks): 67%
breathing difficulties (dyspnea) reduced (PCFS patients [12]; after 8 weeks): 85%
Body Aches (VAS scale) (PCFS patients [12]; 8 weeks): 0.8
Breathing difficulties (VAS scale) (PCFS patients [12]; 8 weeks): 0.4
Lung pain (VAS scale) (PCFS patients [12]; 8 weeks): 0.6
Body Aches (VAS scale) (PCFS patients [12]; Baseline): 2.8
Breathing difficulties (VAS scale) (PCFS patients [12]; Baseline): 2.6
Lung pain (VAS scale) (PCFS patients [12]; Baseline): 1.8
Cohen's effect (d), Body aches (BOA) (PCFS patients [12]; [14]): 1.11
Cohen's effect (d), Lung pain (LUP) (PCFS patients [12]; [14]): 0.64
Cohen's effect size for time to exhaustion (Post-COVID patients [13]; creatine monohydrate plus breathing exercise): 0.36
stage reached in the treadmill test (Post-COVID patients [13]; creatine plus breathing exercise study): 6
Time to exhaustion (Post-COVID patients [13]; creatine plus breathing exercise study, 3-months): 921 s
Time to exhaustion (Post-COVID patients [13]; creatine plus breathing exercise study, Baseline): 867 s
mean time to exhaustion improved (Post-COVID patients [13]; experimental group, post-administration (3 months)): 54 s
